# Data reported in US20090075921A1, “Bone/joint disease sensitivity gene and use thereof” (Riken, priority 2004, published 2009).
# B1: Fr.18-21: partially purified product of Escherichia coli recombinant S-tagged mouse asporin (protein, UniProt Q99MQ4 33-373, looked up)
# Asporin: DMEDTDDDDNDDDDNSLFPTKEPVNPFFPFDLFPTCPFGCQCYSRVVHCSDLGLTSVPNNIPFDTRMVDLQNNKIKEIKENDFKGLTSLYALILNNNKLTKIHPKTFLTTKKLRRLYLSHNQLSEIPLNLPKSLAELRIHDNKVKKIQKDTFKGMNALHVLEMSANPLENNGIEPGAFEGVTVFHIRIAEAKLTSIPKGLPPTLLELHLDFNKISTVELEDLKRYRELQRLGLGNNRITDIENGTFANIPRVREIHLEHNKLKKIPSGLQELKYLQIIFLHYNSIAKVGVNDFCPTVPKMKKSLYSAISLFNNPMKYWEIQPATFRCVLGRMSVQLGNVGK
# modifications: S-tag; partially purified fraction
# notes: partially purified product of Escherichia coli recombinant S-tagged mouse asporin
# B2: S-tagged mouse asporin: S-tagged mature mouse asporin expressed in E. coli from pET29b-MASP, contained in Fr.18-21 (protein)
# chain: B1 Asporin
# modifications: left off: small tags and cut ends
# Tests used:
# [1] = tested on: NHAC; experiment: Effect of cycloheximide on asporin gene expression induction by TGF-β1 in NHAC; type: cell-based, human
# Protocol: A time course of the expression of the asporin gene by TGF-β1 in NHAC was examined as described below. Cells were inoculated to a 12-well plate at 1×10^5 cells/well, and cultured in a DMEM/F12 containing 10% FBS until they became confluent. The medium was exchanged with a DMEM/F12 containing 0.2% FBS, and the cells were cultured for 24 hours, after which TGF-β1 (10 ng/ml) was added, total RNA was extracted over time, and the expression levels of the asporin and GAPDH genes were examined. As a result, the expression level of the asporin gene maximized when the cells were cultured in the presence of TGF-β1 (10 ng/ml) for 12 hours, and thereafter the expression level decreased over time (FIG. 46).
# In the experimental system for asporin gene-expression induction by TGF-β1 used in the method described in Example 54, the effect of CHX (Sigma) (10 μM), a protein synthesis inhibitor, on the induction of the expression of the asporin gene (12 hours), when added 30 minutes before, simultaneously with, or 2 hours or 6 hours after addition of TGF-β1 (10 ng/ml), was examined. As a result, when CHX was added 30 minutes before, and simultaneously with, the addition of TGF-β1, asporin induction by TGF-β1 was inhibited (FIG. 48).
# [2] = target: TGF-β1 (Homo sapiens, UniProt P01137); experiment: Microplate binding assay, inhibition of biotinylated decholine binding to TGF-β1 solid phase; settings: TGF-β1-coated microplate
# Protocol: A binding assay of mouse asporin and TGF-β using the microplate assay method was performed with the degree of inhibition of binding of biotinylated decholine and TGF-β as the index, as described below. To a Maxisorp 96-well microplate of Nunc, a 1 μg/ml TGF-β1 solution prepared with 0.05 M sodium carbonate buffer (pH 9.6) was dispensed at 100 μl/well, and the microplate was coated with the solution at 4° C. overnight. The TGF-β-coated wells were blocked in a 200 μl/well of binding buffer (50 mM Tris (pH 7.4), 150 mM NaCl, 2% BSA, 0.05% Tween 20) at 37° C. for 3 hours. The wells were once washed with a 400 μl/well of binding buffer, after which biotinylated decholine and non-labeled protein, prepared with the binding buffer, were added to obtain a total quantity of 100 μl per well, and the microplate was incubated at 37° C. for 6 hours. The wells were washed with a 400 μl/well of binding buffer 3 times, after which streptavidin-HRP (R&D System), diluted 200 fold with the binding buffer, was added at 100 μl/well, and the microplate was incubated at room temperature for 20 minutes. […] The reaction was stopped by the direct addition of 1 M phosphoric acid at 100 μl/well, and absorbance at 415 nm (control: 750 nm) was measured using Ultramark Microplate Imaging System (BIO-RAD). […]
# Sequence of TGF-β1 (P01137 279-390 limits assumed, species assumed): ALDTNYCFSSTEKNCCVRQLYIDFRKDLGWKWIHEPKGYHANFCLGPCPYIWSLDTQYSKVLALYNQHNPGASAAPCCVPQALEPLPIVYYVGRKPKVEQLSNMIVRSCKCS
molecule,measurement,setting,value
"C[C@@H]1C[C@@H]([C@H](O)CC2CC(=O)NC(=O)C2)C(=O)[C@@H](C)C1 [CHX, cycloheximide]",asporin induction by TGF-β1,[1]; CHX 10 μM added 30 minutes before or simultaneously with TGF-β1 10 ng/ml,inhibited
same,asporin induction by TGF-β1,[1]; CHX 10 μM added at 2 hours or thereafter following TGF-β1,induction of asporin gene expression by TGF-β1 was observed
B1,inhibition of binding of biotinylated decholine to TGF-β1,[2],observed with dependence on protein content
B2,binding of S-tagged mouse asporin to the TGF-β1 solid phase,[2],binding of S-tagged mouse asporin was observed
